Results from patent US20230219931A1, “FUSED HETEROARYL HYDROXAMATES AS STING AGONISTS” (BiSiChem Co., Ltd., priority 2022, published 2023).
Counter-ions that a name gives are not always drawn.

System: ISG reporter activity in THP1-Dual cell
Experiment: ISG reporter assay
Format: cell-based
Details: Homo sapiens, compounds incubated with cells for 24 hours, QUANTI-Blue, absorbance at 655 nm
Description: [Worded in the source for another cell line; this cell line is reported under the same test.] THP1-Blue cells (cat. no. thp-isg) were purchased from InvivoGen (Sandiago, USA). Penicillin—streptomycin (cat. no. L0022-100), Fetal Bovine Serum (FBS) (cat. no. S1480-500) and Roswell Park Memorial Institute (RPMI) 1640 media (cat. L0498-500) were purchased from biowest (Nuaille, France). Zeocin (cat. no. ant-zn-OS) and Normocin (cat. no. ant-nr-1) were purchased from InvivoGen (Sandiago, USA). QUANTI-Blue™ (cat. no. rep-qbs) was purchased from InvivoGen. THP1-Blue cells were cultured in RPMI 1640 medium with 10% heat-inactivated FBS, 100 μg/ml Normocin, 100 μg/ml Zeocin and 100 U/ml-100 μg/ml penicillin-streptomycin. The cells were incubated at 37° C. in a humidified atmosphere of 5% CO2.
THP1-Blue cells were seeded at 5×10^4 cells/well (90 μl/well). 10 μl of compounds were added to the cells and incubated for 24 hours. 20 μl of cell culture supernatant was dispensed new 96-well plate (cat. no. 30096) with 180 μl of QUANTI-Blue™ solution and incubated for 15 minutes at 37° C. The absorbance was measured by Varioskan Lux (Thermofisher Scientific, USA) at 655 nm.

| SMILES | EC50 [nM] |
| --- | --- |
| CCn1nc(C)cc1C(=O)Nc1nc2cc(C(N)=O)cc(OC)c2n1C/C=C/Cn1c(NC(=O)c2cc(C)nn2CC)nc2cc(C(N)=O)cc(OCC#CC3CCN(C(=O)N4CCNCC4)CC3)c21 [Example 17, (E)-1-(4-(5-carbamoyl-2-(1-ethyl-3-methyl-1H-pyrazole-5-carboxamido)-7-((3-(1-(piperazine-1-carbonyl)piperidin-4-yl)prop-2-yn-1-yl)oxy)-1H-benzo[d]imidazol-1-yl)but-2-en-1-yl)-2-(1-ethyl-3-methyl-1H-pyrazole-5-carboxamido)-7-methoxy-1H-benzo[d]imidazole-5-carboxamide hydrochloride] | < 50 |
| CCn1nc(C)cc1C(=O)Nc1nc2cc(C(N)=O)cc(OC)c2n1C/C=C/Cn1c(NC(=O)c2cc(C)nn2CC)nc2cc(C(N)=O)cc(OCC#CC3CCN(C(=O)OC4CCCC4)CC3)c21 [Example 7, cyclopentyl (E)-4-(3-((5-carbamoyl-1-(4-(5-carbamoyl-2-(1-ethyl-3-methyl-1H-pyrazole-5-carboxamido)-7-methoxy-1H-benzo[d]imidazol-1-yl)but-2-en-1-yl)-2-(1-ethyl-3-methyl-1H-pyrazole-5-carboxamido)-1H-benzo[d]imidazol-7-yl)oxy)prop-1-yn-1-yl)piperidine-1-carboxylate] | < 50 |
| CCn1nc(C)cc1C(=O)Nc1nc2cc(C(N)=O)cc(OC)c2n1C/C=C/Cn1c(NC(=O)c2cc(C)nn2CC)nc2cc(C(N)=O)cc(OCC#CCC3CCN(C(=O)OCCO)CC3)c21 [Example 45, 2-hydroxyethyl (E)-4-(4-((5-carbamoyl-1-(4-(5-carbamoyl-2-(1-ethyl-3-methyl-1H-pyrazole-5-carboxamido)-7-methoxy-1H-benzo[d]imidazol-1-yl)but-2-en-1-yl)-2-(1-ethyl-3-methyl-1H-pyrazole-5-carboxamido)-1H-benzo[d]imidazol-7-yl)oxy)but-2-yn-1-yl)piperidine-1-carboxylate] | < 50 |
| CCn1nc(C)cc1C(=O)Nc1nc2cc(C(N)=O)cc(OC)c2n1C/C=C/Cn1c(NC(=O)c2cc(C)nn2CC)nc2cc(C(N)=O)cc(OCC#CC3CCN(C(=O)N4CCC(O)CC4)CC3)c21 [Example 18, (E)-1-(4-(5-carbamoyl-2-(1-ethyl-3-methyl-1H-pyrazole-5-carboxamido)-7-((3-(1-(4-hydroxypiperidine-1-carbonyl)piperidin-4-yl)prop-2-yn-1-yl)oxy)-1H-benzo[d]imidazol-1-yl)but-2-en-1-yl)-2-(1-ethyl-3-methyl-1H-pyrazole-5-carboxamido)-7-methoxy-1H-benzo[d]imidazole-5-carboxamide] | < 50 |
| CCn1nc(C)cc1C(=O)Nc1nc2cc(C(N)=O)cc(OC)c2n1C/C=C/Cn1c(NC(=O)c2cc(C)nn2CC)nc2cc(C(N)=O)cc(OCC#CC3CCN(C(=O)N4CCN(C(=O)OC(C)(C)C)CC4)CC3)c21 [Example 16, tert-butyl (E)-4-(4-(3-((5-carbamoyl-1-(4-(5-carbamoyl-2-(1-ethyl-3-methyl-1H-pyrazole-5-carboxamido)-7-methoxy-1H-benzo[d]imidazol-1-yl)but-2-en-1-yl)-2-(1-ethyl-3-methyl-1H-pyrazole-5-carboxamido)-1H-benzo[d]imidazol-7-yl)oxy)prop-1-yn-1-yl)piperidine-1-carbonyl)piperazine-1-carboxylate] | < 50 |
| CCn1nc(C)cc1C(=O)Nc1nc2cc(C(N)=O)cc(OC)c2n1C/C=C/Cn1c(NC(=O)c2cc(C)nn2CC)nc2cc(C(N)=O)cc(OCC#CC3CCN(S(=O)(=O)C4CC4)CC3)c21 [Example 21, (E)-1-(4-(5-carbamoyl-2-(1-ethyl-3-methyl-1H-pyrazole-5-carboxamido)-7-methoxy-1H-benzo[d]imidazol-1-yl)but-2-en-1-yl)-7-((3-(1-(cyclopropylsulfonyl)piperidin-4-yl)prop-2-yn-1-yl)oxy)-2-(1-ethyl-3-methyl-1H-pyrazole-5-carboxamido)-1H-benzo[d]imidazole-5-carboxamide] | < 50 |
| CCn1nc(C)cc1C(=O)Nc1nc2cc(C(N)=O)cc(OC)c2n1C/C=C/Cn1c(NC(=O)c2cc(C)nn2CC)nc2cc(C(N)=O)cc(OCC#CCC3CCCN(C(=O)OC(C)(C)C)C3)c21 (centres unmarked) [Example 52, tert-butyl (E)-3-(4-((5-carbamoyl-1-(4-(5-carbamoyl-2-(1-ethyl-3-methyl-1H-pyrazole-5-carboxamido)-7-methoxy-1H-benzo[d]imidazol-1-yl)but-2-en-1-yl)-2-(1-ethyl-3-methyl-1H-pyrazole-5-carboxamido)-1H-benzo[d]imidazol-7-yl)oxy)but-2-yn-1-yl)piperidine-1-carboxylate] | < 50 |
| CCn1nc(C)cc1C(=O)Nc1nc2cc(C(N)=O)cc(OC)c2n1C/C=C/Cn1c(NC(=O)c2cc(C)nn2CC)nc2cc(C(N)=O)cc(OCC#CC3CCN(S(=O)(=O)N(C)C)CC3)c21 [Example 24, (E)-1-(4-(5-carbamoyl-2-(1-ethyl-3-methyl-1H-pyrazole-5-carboxamido)-7-methoxy-1H-benzo[d]imidazol-1-yl)but-2-en-1-yl)-7-((3-(1-(N,N-dimethylsulfamoyl)piperidin-4-yl)prop-2-yn-1-yl)oxy)-2-(1-ethyl-3-methyl-1H-pyrazole-5-carboxamido)-1H-benzo[d]imidazole-5-carboxamide] | < 50 |
| CCn1nc(C)cc1C(=O)Nc1nc2cc(C(N)=O)cc(OC)c2n1C/C=C/Cn1c(NC(=O)c2cc(C)nn2CC)nc2cc(C(N)=O)cc(OCC#CC3CCN(S(=O)(=O)N4CCCC4)CC3)c21 [Example 26, (E)-1-(4-(5-carbamoyl-2-(1-ethyl-3-methyl-1H-pyrazole-5-carboxamido)-7-((3-(1-(pyrrolidin-1-ylsulfonyl)piperidin-4-yl)prop-2-yn-1-yl)oxy)-1H-benzo[d]imidazol-1-yl)but-2-en-1-yl)-2-(1-ethyl-3-methyl-1H-pyrazole-5-carboxamido)-7-methoxy-1H-benzo[d]imidazole-5-carboxamide] | < 50 |
| CCn1nc(C)cc1C(=O)Nc1nc2cc(C(N)=O)cc(OC)c2n1C/C=C/Cn1c(NC(=O)c2cc(C)nn2CC)nc2cc(C(N)=O)cc(OCC#CC3CCN(C(=O)OC4CC4)CC3)c21 [Example 6, cyclopropyl (E)-4-(3-((5-carbamoyl-1-(4-(5-carbamoyl-2-(1-ethyl-3-methyl-1H-pyrazole-5-carboxamido)-7-methoxy-1H-benzo[d]imidazol-1-yl)but-2-en-1-yl)-2-(1-ethyl-3-methyl-1H-pyrazole-5-carboxamido)-1H-benzo[d]imidazol-7-yl)oxy)prop-1-yn-1-yl)piperidine-1-carboxylate] | < 50 |
| CCn1nc(C)cc1C(=O)Nc1nc2cc(C(N)=O)cc(OC)c2n1C/C=C/Cn1c(NC(=O)c2cc(C)nn2CC)nc2cc(C(N)=O)cc(OCC#CC3CCN(C(=O)c4cc(C)nn4CC)CC3)c21 [Example 13, (E)-1-(4-(5-carbamoyl-2-(1-ethyl-3-methyl-1H-pyrazole-5-carboxamido)-7-methoxy-1H-benzo[d]imidazol-1-yl)but-2-en-1-yl)-7-((3-(1-(1-ethyl-3-methyl-1H-pyrazole-5-carbonyl)piperidin-4-yl)prop-2-yn-1-yl)oxy)-2-(1-ethyl-3-methyl-1H-pyrazole-5-carboxamido)-1H-benzo[d]imidazole-5-carboxamide] | < 50 |
| CCn1nc(C)cc1C(=O)Nc1nc2cc(C(N)=O)cc(OC)c2n1C/C=C/Cn1c(NC(=O)c2cc(C)nn2CC)nc2cc(C(N)=O)cc(OCC#CC3CCN(S(=O)(=O)N4CCNCC4)CC3)c21 [Example 29, (E)-1-(4-(5-carbamoyl-2-(1-ethyl-3-methyl-1H-pyrazole-5-carboxamido)-7-((3-(1-(piperazin-1-ylsulfonyl)piperidin-4-yl)prop-2-yn-1-yl)oxy)-1H-benzo[d]imidazol-1-yl)but-2-en-1-yl)-2-(1-ethyl-3-methyl-1H-pyrazole-5-carboxamido)-7-methoxy-1H-benzo[d]imidazole-5-carboxamide hydrochloride] | < 50 |
| CCn1nc(C)cc1C(=O)Nc1nc2cc(C(N)=O)cc(OC)c2n1C/C=C/Cn1c(NC(=O)c2cc(C)nn2CC)nc2cc(C(N)=O)cc(OCC#CC3CCN(S(=O)(=O)C(C)C)CC3)c21 [Example 20, (E)-1-(4-(5-carbamoyl-2-(1-ethyl-3-methyl-1H-pyrazole-5-carboxamido)-7-((3-(1-(isopropylsulfonyl)piperidin-4-yl)prop-2-yn-1-yl)oxy)-1H-benzo[d]imidazol-1-yl)but-2-en-1-yl)-2-(1-ethyl-3-methyl-1H-pyrazole-5-carboxamido)-7-methoxy-1H-benzo[d]imidazole-5-carboxamide] | < 50 |
| CCn1nc(C)cc1C(=O)Nc1nc2cc(C(N)=O)cc(OC)c2n1C/C=C/Cn1c(NC(=O)c2cc(C)nn2CC)nc2cc(C(N)=O)cc(OCC#CC3CCN(S(=O)(=O)N4CCN(C(=O)OC(C)(C)C)CC4)CC3)c21 [Example 28, tert-butyl (E)-4-((4-(3-((5-carbamoyl-1-(4-(5-carbamoyl-2-(1-ethyl-3-methyl-1H-pyrazole-5-carboxamido)-7-methoxy-1H-benzo[d]imidazol-1-yl)but-2-en-1-yl)-2-(1-ethyl-3-methyl-1H-pyrazole-5-carboxamido)-1H-benzo[d]imidazol-7-yl)oxy)prop-1-yn-1-yl)piperidin-1-yl)sulfonyl)piperazine-1-carboxylate] | < 50 |
